# Source: patent US10202367B2, “Heterocyclic compounds and methods of use thereof” (priority 2014, dated 2019)
# Where “and” joins values, the source holds several entries; their conditions need not be identical. Equal entries are not always repeated.
# Legend:
# [1] = Aqueous solubility in PBS; format: physicochemical
# [2] = Stability in PBS or PBS/acetonitrile (1/1); format: physicochemical; details: 10 μM, PBS and PBS/acetonitrile (1/1), pH 7.4, room temperature, after 48 hours
# Method: (§1) Procedure: […] The mixtures were sampled every hour for eight hours or every 8 hours for 48 hours and analyzed by RP HPLC/UV/HRMS. The analytical RP HPLCUV/HRMS system utilized for the analysis was a Waters Acquity system with UV-detection and mass-detection (Waters SQD). […] Absolute areas under the curve were compared at each time point to determine relative percent compound remaining. The masses of potential adducts were searched for in the final samples to determine if any detectable adduct formed. All samples were prepared in duplicate and the average plotted. Ethacrynic acid, a known Michael acceptor, was used as a positive control. […] To determine the stability of the probe compound to nucleophilic degradation, the compound was dissolved in the two solvent systems above in the presence of 50 μM dithiothreitol (DTT) (FIGS. 2A and 2B).
# [3] = Stability to nucleophilic degradation in presence of 50 μM dithiothreitol; format: physicochemical; details: 10 μM, 50 μM DTT, PBS and PBS/acetonitrile (1/1), after 8 hours
# Method: as §1
# HCVsc, genotype 2a = format: cell-based, Hepatitis C virus; details: 10 μM
# GT 2a replicon RNA = format: cell-based, Hepatitis C virus
# [4] = tested on: HCV replicon (GT 2a) cells; format: cell-based, Hepatitis C virus
# HCVpp GT 1a = assay: HCVpp entry assay; format: cell-based, Hepatitis C virus; details: Huh7.5.1 cells
# VSVpp = format: cell-based, vesicular stomatitis virus
# HCVcc-RLuc = HCVcc-RLuc assay, combination of compound 3 with anti-HCV drugs (CalcuSyn / MacSynergy II); format: cell-based, Hepatitis C virus; details: combination
# Cell permeability = format: in vitro ADME
# in vitro = details: rat, microsomes, Rat liver microsomes t ½ (min)
Structure (SMILES),Sol. [1] [µg/mL],Permeability (le^−6 cm/s) (Cell permeability),half-life (in vitro) [min],further results
"Cc1cccc(Cl)c1-c1nc(CN2CCC(C(=O)NCCCN3C[C@H](C)C[C@H](C)C3)CC2)c(C)o1 [Compound 1, 1-((2-(2-Chloro-6-methylphenyl)-5-methyloxazol-4-yl)methyl)-N-(3-(cis-3,5-dimethylpiperidin-1-yl)propyl)piperidine-4-carboxamide]",>74.0,,,"solubility ([1]; phosphate buffered saline (PBS), aqueous buffer, PBS, pH 7.4, room temperature (23° C.)): > 74 µg/mL and > 147 µM; sample still detected in the supernatant [2]: greater than 97%; degradation in presence of dithiothreitol [3]: no measurable degradation"
Cc1ccccc1-c1nc(CN2CCC(C(=O)NCCCN3C[C@H](C)C[C@H](C)C3)CC2)c(C)o1 [Compound 3],53.9,,,"inhibitory activity on HCVsc infection level (HCVsc, genotype 2a): dramatic inhibitory activities; inhibitory effect on HCV replication, transient transfection with GT 2a replicon RNA (GT 2a replicon RNA; 10 μM): no inhibitory effect; % RLU at 10 μM, HCV subgenomic replicon Transient GT 2a (GT 2a replicon RNA; Huh7.5.1 cells, 48 h): 105 % RLU; inhibitory effect on HCV replication, GT 2a replicon cell line ([4]; 10 μM): no inhibitory effect; % RLU at 10 μM, HCV subgenomic replicon GT 2a cell line ([4]; 48 h): 103 % RLU; % RLU at 10 μM, HCVpp GT 1a (HCVpp GT 1a): < 30 % RLU; % RLU at 10 μM, VSV pp (VSVpp): ~50 % RLU; antiviral effect in combination with ribavirin, interferon, telaprevir, daclatasvir, cyclosporin A and 2′-C-methylcytidine (HCVcc-RLuc): synergistic"
CCN(CC)CCCCNC(=O)C1CCN(Cc2nc(-c3cc(OC)cc(OC)c3)oc2C)CC1 [Compound 8],>72.0,10.4,,
Cc1ccccc1-c1nc(CN2CCC(C(=O)NCCN3CCCCC3)CC2)c(C)o1 [Compound 11],47,987.3,,
Cc1oc(-c2c(C)c(C)c(C)c(C)c2C)nc1CN1CCC(C(=O)NCCCN2C[C@H](C)C[C@H](C)C2)CC1 [Compound 56],,455.2,,
Cc1ccccc1-c1nc(CC2CCC[C@@H](C(=O)CCCCN3C[C@H](C)C[C@H](C)C3)C2)c(C)o1 (some centres unmarked) [Compound 66],57.8,864.8,3.9,
Cc1ccccc1-c1nc(CN2CCC[C@@H](C(=O)NCCCN3C[C@H](C)C[C@H](C)C3)C2)c(C)o1 [Compound 67],57.8,864.8,3.9,
C[C@@H]1C[C@H](C)CN(CCCNC(=O)C2CCN(Cc3oc(-c4cc(C(F)(F)F)cc(C(F)(F)F)c4)nc3C(F)(F)F)CC2)C1 [Compound 68],2.5,1061,16.4,
CC1CCCN(CCCNC(=O)C2CCN(Cc3oc(-c4cc(C(F)(F)F)cc(C(F)(F)F)c4)nc3C(F)(F)F)CC2)C1 (centres unmarked) [Compound 69],,>1397,5.7,
